# Where a SMILES comes first, the peptide text is derived from it. Bridges are numbered along the chain shown (N, C = ends). [ ]: non-standard residue; d: D form. The star is where a group is joined. Ileψ(thiazoline)Cys = CC[C@H](C)[C@H](N)C1=N[C@H](C(=O)*)CS1; dOrn = NCCC[C@@H](N)C(=O)O
# How the values were obtained:
# Format in all cases: functional
# Staphylococcus aureus [1] = assay: Induction of PvraSr::lacZ gene expression in Staphylococcus aureus SH1000 at 13.4 ug/ml after 2 hrs by beta-galactosidase reporter gene assay relative to untreated control
# Staphylococcus aureus [2] = assay: Induction of PsgtB::lacZ gene expression in Staphylococcus aureus SH1000 at 13.4 ug/ml after 2 hrs by beta-galactosidase reporter gene assay relative to untreated control
# Staphylococcus aureus [3] = assay: Antimicrobial activity against beta-lactamase producing Staphylococcus aureus SH1000
# Staphylococcus aureus [4] = assay: Induction of Ppbp2::lacZ gene expression in Staphylococcus aureus SH1000 at 13.4 ug/ml after 2 hrs by beta-galactosidase reporter gene assay relative to untreated control
# Staphylococcus aureus [5] = assay: Induction of PtcaA::lacZ gene expression in Staphylococcus aureus SH1000 at 13.4 ug/ml after 2 hrs by beta-galactosidase reporter gene assay relative to untreated control
# Staphylococcus aureus [6] = assay: Induction of PlytR::lacZ gene expression in Staphylococcus aureus SH1000 at 13.4 ug/ml after 2 hrs by beta-galactosidase reporter gene assay relative to untreated control
# Staphylococcus aureus [7] = assay: Induction of Ppbp2::lacZ gene expression in Staphylococcus aureus SH1000 at 3 ug/ml after 2 hrs by beta-galactosidase reporter gene assay relative to untreated control
# Staphylococcus aureus [8] = assay: Induction of PvraSr::lacZ gene expression in Staphylococcus aureus SH1000 at 3 ug/ml after 2 hrs by beta-galactosidase reporter gene assay relative to untreated control
# Staphylococcus aureus [9] = assay: Induction of PlytR::lacZ gene expression in Staphylococcus aureus SH1000 at 3 ug/ml after 2 hrs by beta-galactosidase reporter gene assay relative to untreated control
# Staphylococcus aureus [10] = assay: Induction of PtcaA::lacZ gene expression in Staphylococcus aureus SH1000 at 3 ug/ml after 2 hrs by beta-galactosidase reporter gene assay relative to untreated control
# Staphylococcus aureus [11] = assay: Induction of PsgtB::lacZ gene expression in Staphylococcus aureus SH1000 at 3 ug/ml after 2 hrs by beta-galactosidase reporter gene assay relative to untreated control
# Staphylococcus aureus [12] = assay: Induction of PsgtB::lacZ gene expression in Staphylococcus aureus SH1000 at 150 ug/ml after 2 hrs by beta-galactosidase reporter gene assay relative to untreated control
# Staphylococcus aureus [13] = assay: Induction of Ppbp2::lacZ gene expression in Staphylococcus aureus SH1000 at 150 ug/ml after 2 hrs by beta-galactosidase reporter gene assay relative to untreated control
# Staphylococcus aureus [14] = assay: Induction of PtcaA::lacZ gene expression in Staphylococcus aureus SH1000 at 150 ug/ml after 2 hrs by beta-galactosidase reporter gene assay relative to untreated control
# Staphylococcus aureus [15] = assay: Induction of PvraSr::lacZ gene expression in Staphylococcus aureus SH1000 at 150 ug/ml after 2 hrs by beta-galactosidase reporter gene assay relative to untreated control
# Staphylococcus aureus [16] = assay: Induction of PlytR::lacZ gene expression in Staphylococcus aureus SH1000 at 150 ug/ml after 2 hrs by beta-galactosidase reporter gene assay relative to untreated control
# Staphylococcus aureus [17] = assay: Induction of PsgtB::lacZ gene expression in Staphylococcus aureus SH1000 at 2.5 ug/ml after 2 hrs by beta-galactosidase reporter gene assay relative to untreated control
# Staphylococcus aureus [18] = assay: Induction of PvraSr::lacZ gene expression in Staphylococcus aureus SH1000 at 2.5 ug/ml after 2 hrs by beta-galactosidase reporter gene assay relative to untreated control
# Staphylococcus aureus [19] = assay: Induction of Ppbp2::lacZ gene expression in Staphylococcus aureus SH1000 at 2.5 ug/ml after 2 hrs by beta-galactosidase reporter gene assay relative to untreated control
# Staphylococcus aureus [20] = assay: Induction of PlytR::lacZ gene expression in Staphylococcus aureus SH1000 at 2.5 ug/ml after 2 hrs by beta-galactosidase reporter gene assay relative to untreated control
# Staphylococcus aureus [21] = assay: Induction of PtcaA::lacZ gene expression in Staphylococcus aureus SH1000 at 2.5 ug/ml after 2 hrs by beta-galactosidase reporter gene assay relative to untreated control
# Staphylococcus aureus [22] = assay: Induction of PsgtB::lacZ gene expression in Staphylococcus aureus SH1000 at 1 ug/ml after 2 hrs by beta-galactosidase reporter gene assay relative to untreated control
# Staphylococcus aureus [23] = assay: Induction of PvraSr::lacZ gene expression in Staphylococcus aureus SH1000 at 1 ug/ml after 2 hrs by beta-galactosidase reporter gene assay relative to untreated control
# Staphylococcus aureus [24] = assay: Induction of PlytR::lacZ gene expression in Staphylococcus aureus SH1000 at 1 ug/ml after 2 hrs by beta-galactosidase reporter gene assay relative to untreated control
# Staphylococcus aureus [25] = assay: Induction of PtcaA::lacZ gene expression in Staphylococcus aureus SH1000 at 1 ug/ml after 2 hrs by beta-galactosidase reporter gene assay relative to untreated control
# Staphylococcus aureus [26] = assay: Induction of Ppbp2::lacZ gene expression in Staphylococcus aureus SH1000 at 1 ug/ml after 2 hrs by beta-galactosidase reporter gene assay relative to untreated control
smiles,measurement,setting,value
CC[C@H](C)[C@H](N)C1=N[C@H](C(=O)N[C@@H](CC(C)C)C(=O)N[C@H](CCC(=O)O)C(=O)N[C@H](C(=O)N[C@H]2CCCCNC(=O)[C@H](CC(N)=O)NC(=O)[C@@H](CC(=O)O)NC(=O)[C@H](Cc3cnc[nH]3)NC(=O)[C@@H](Cc3ccccc3)NC(=O)[C@H]([C@@H](C)CC)NC(=O)[C@@H](CCCN)NC2=O)[C@@H](C)CC)CS1 [BACITRACIN] ({Ileψ(thiazoline)Cys}-L[dE]IK[dOrn]I[dF]H[dD]N; lactam 4-C),fold change (FC),Staphylococcus aureus [1],1.92
same,fold change (FC),Staphylococcus aureus [2],4.63
same,MIC,Staphylococcus aureus [3],2 µg/mL
same,fold change (FC),Staphylococcus aureus [4],3.7
same,fold change (FC),Staphylococcus aureus [5],3.99
same,fold change (FC),Staphylococcus aureus [6],1.94
O=C(N[C@H](CO)[C@H](O)c1ccc([N+](=O)[O-])cc1)C(Cl)Cl [CHLORAMPHENICOL],fold change (FC),Staphylococcus aureus [7],0.94
same,fold change (FC),Staphylococcus aureus [8],0.88
same,fold change (FC),Staphylococcus aureus [9],1.07
same,MIC,Staphylococcus aureus [3],0.5 µg/mL
same,fold change (FC),Staphylococcus aureus [10],1.04
same,fold change (FC),Staphylococcus aureus [11],0.93
N[C@@H]1CONC1=O [CYCLOSERINE],fold change (FC),Staphylococcus aureus [12],15.63
same,fold change (FC),Staphylococcus aureus [13],3.41
same,MIC,Staphylococcus aureus [3],1 µg/mL
same,fold change (FC),Staphylococcus aureus [14],4.6
same,fold change (FC),Staphylococcus aureus [15],4.08
same,fold change (FC),Staphylococcus aureus [16],3.13
CC[C@H]1OC(=O)[C@H](C)[C@@H](O[C@H]2C[C@@](C)(OC)[C@@H](O)[C@H](C)O2)[C@H](C)[C@@H](O[C@@H]2O[C@H](C)C[C@H](N(C)C)[C@H]2O)[C@](C)(O)C[C@@H](C)C(=O)[C@H](C)[C@@H](O)[C@]1(C)O [ERYTHROMYCIN],fold change (FC),Staphylococcus aureus [17],0.93
same,fold change (FC),Staphylococcus aureus [18],0.8
same,fold change (FC),Staphylococcus aureus [19],1.15
same,MIC,Staphylococcus aureus [3],2 µg/mL
same,fold change (FC),Staphylococcus aureus [20],1.04
same,fold change (FC),Staphylococcus aureus [21],1.12
C=C(NC(=O)[C@@H](NC(=O)[C@H](Cc1cnc[nH]1)NC(=O)[C@@H](NC(=O)[C@H](CO)NC(=O)[C@@H]1CS[C@@H](C)[C@H]2NC(=O)C(=C)NC(=O)[C@H](NC(=O)[C@H](CCCCN)NC(=O)[C@H](CCSC)NC(=O)[C@H](CC(N)=O)NC(=O)[C@@H]3CS[C@@H](C)[C@@H](NC(=O)[C@H](CCCNN)NC(=O)[C@@H]4CS[C@@H](C)[C@@H](NC(=O)[C@@H]5CSC[C@@H](NC(=O)/C(=C\C)NC(=O)[C@@H](N)[C@@H](C)CC)C(=O)N[C@@H]([C@@H](C)CC)C(=O)NC(=C)C(=O)N[C@@H]([C@@H](C)CC)C(=O)N5)C(=O)N5CCC[C@H]5C(=O)NCC(=O)N4)C(=O)NCC(=O)N[C@@H](C)C(=O)N[C@@H]([C@@H](C)CC)C(=O)N[C@@H](CCSC)C(=O)NCC(=O)N3)[C@H](C)SC[C@H](NC2=O)C(=O)N[C@H](Cc2cnc[nH]2)C(=O)N1)[C@@H](C)CC)C(C)C)C(=O)N[C@@H](CCCCN)C(=O)O [NISIN],fold change (FC),Staphylococcus aureus [22],1.02
same,fold change (FC),Staphylococcus aureus [23],0.57
same,fold change (FC),Staphylococcus aureus [24],1.21
same,fold change (FC),Staphylococcus aureus [25],0.97
same,fold change (FC),Staphylococcus aureus [26],1.02

# Source: ChEMBL document CHEMBL1275483, “Staphylococcus aureus cell wall stress stimulon gene-lacZ fusion strains: potential for use in screening for cell wall-active antimicrobials” (2008)
